{"source": "paper PMC9864251", "about": "(Viruses, 2022)", "key": {"HuNoV (GII.4) RdRp [1]": {"molecular_target": "T1, HuNoV (GII.4) RdRp (Norovirus GII.4 (Human norovirus, Norovirus norwalkense), UniProt P54634)", "T1 sequence (P54634 1190-1699)": "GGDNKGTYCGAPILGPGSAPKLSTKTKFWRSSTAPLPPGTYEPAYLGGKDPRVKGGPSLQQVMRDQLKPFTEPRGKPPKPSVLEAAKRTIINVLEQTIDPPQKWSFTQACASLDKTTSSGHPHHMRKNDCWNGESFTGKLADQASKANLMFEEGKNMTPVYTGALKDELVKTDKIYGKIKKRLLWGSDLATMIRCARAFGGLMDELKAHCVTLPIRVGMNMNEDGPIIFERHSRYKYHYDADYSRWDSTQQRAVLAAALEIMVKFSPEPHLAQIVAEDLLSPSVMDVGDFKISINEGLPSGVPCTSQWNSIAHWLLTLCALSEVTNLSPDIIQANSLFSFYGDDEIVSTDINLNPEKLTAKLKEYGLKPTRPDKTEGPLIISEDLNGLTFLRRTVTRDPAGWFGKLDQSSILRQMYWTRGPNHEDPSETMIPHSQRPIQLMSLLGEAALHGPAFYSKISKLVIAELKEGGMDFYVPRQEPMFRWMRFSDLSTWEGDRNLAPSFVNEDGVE", "assay": "Gel-based (gel-shift) RdRp primed elongation assay with PE44-NoV template", "format": "biochemical", "settings": "compounds at fixed concentration of 100 μM"}, "HuNoV (GII.4) RdRp [2]": {"molecular_target": "T1, HuNoV (GII.4) RdRp", "assay": "Quantitative fluorescent RdRp activity assay (PicoGreen, poly(C) template)", "format": "biochemical", "settings": "compounds at 20 μM in triplicate, normalized to DMSO control"}, "RAW 264.7 cells": {"test_system": "RAW 264.7 cells", "assay": "Cytotoxicity by the MTS method in uninfected RAW 264.7 cells", "format": "cell-based, mouse", "settings": "3 days, 0.6–100 μM range, mean ± SD, at least three independent experiments"}, "NoV": {"test_system": "NoV", "set-up": "method as in earlier work", "settings": "cited from earlier work"}, "[3]": {"set-up": "method as in earlier work", "settings": "cited from earlier work"}, "HuNoV (GII.4) RdRp [4]": {"molecular_target": "T1, HuNoV (GII.4) RdRp", "settings": "activity data as previously reported ref 18,19, read-out: In Vitro RdRp Activity Assay IC50; cited from earlier work"}, "[5]": {"test_system": "MNV (virus strain MNV-1.CW1)", "assay": "MNV antiviral MTS-based cytopathic effect", "format": "cell-based, murine norovirus", "settings": "Norwalk virus, RAW264.7, 72 h, read-out: MNV EC50"}, "HuNoVpol": {"test_system": "HuNoVpol", "set-up": "method as in earlier work", "settings": "cited from earlier work"}, "MNV": {"test_system": "MNV", "set-up": "method as in earlier work", "settings": "cited from earlier work"}, "MNVpol": {"test_system": "MNVpol", "set-up": "method as in earlier work", "settings": "cited from earlier work"}}, "data": [{"compound": "Cc1ccc(NC(=O)CSc2n[nH]c(-c3ccccc3O)n2)c(C)c1", "note": "[Compound 1]", "values": [{"measurement": "Inhibition of RdRp primed elongation activity (gel-shift)", "setting": "HuNoV (GII.4) RdRp [1]", "value": "partial inhibition"}]}, {"compound": "Cc1ccc(NC(=O)CSc2n[nH]c(-c3ccccc3O)n2)cc1", "note": "[Compound 1b]", "values": [{"measurement": "Inhibition of RdRp primed elongation activity (gel-shift)", "setting": "HuNoV (GII.4) RdRp [1]", "value": "partial inhibition"}]}, {"compound": "Cc1ccc(NC(=O)C[S+]([O-])c2n[nH]c(-c3ccccc3O)n2)c(C)c1", "note": "(stereo not drawn) [Compound 1e]", "values": [{"measurement": "Inhibition of HuNoV RdRp activity at 20 μM", "setting": "HuNoV (GII.4) RdRp [2]", "value": "loss of inhibitory activity"}]}, {"compound": "Cc1ccc(NC(=O)CS(=O)(=O)c2n[nH]c(-c3ccccc3O)n2)c(C)c1", "note": "[Compound 1f]", "values": [{"measurement": "MNV CC50", "setting": "RAW 264.7 cells", "value": "not associated with any cytotoxicity"}, {"measurement": "Inhibition of RdRp primed elongation activity (gel-shift)", "setting": "HuNoV (GII.4) RdRp [1]", "value": "partial inhibition"}]}, {"compound": "C[C@@]1(O)[C@H](O)[C@@H](CO)O[C@H]1n1ccc(N)nc1=O", "note": "[Compound 2-CMC, 2′-C-methylcytidine]", "values": [{"measurement": "EC50", "setting": "NoV", "value": 8.2, "unit": "µM"}, {"measurement": "CC50", "setting": "[3]", "value": "> 100", "unit": "µM"}]}, {"compound": "COc1ccc(N2C(=O)c3ccc(C(=O)O)cc3C2=O)cc1NC(=O)c1ccccc1", "note": "[Compound 2]", "values": [{"measurement": "Inhibition of HuNoV RdRp activity at 20 μM", "setting": "HuNoV (GII.4) RdRp [2]", "value": "limited RdRp inhibition"}, {"measurement": "Inhibition of RdRp primed elongation activity (gel-shift)", "setting": "HuNoV (GII.4) RdRp [1]", "value": "partial inhibition"}]}, {"compound": "O=C(Nc1cccc(N2C(=O)c3ccccc3C2=O)c1)c1ccccc1", "note": "[Compound 2e]", "values": [{"measurement": "Inhibition of HuNoV RdRp activity at 20 μM", "setting": "HuNoV (GII.4) RdRp [2]", "value": "loss of inhibitory activity"}]}, {"compound": "O=C(N/N=C/c1ccc(O)cc1O)c1ccccc1OCc1ccccc1", "note": "[Compound 3a]", "values": [{"measurement": "Inhibition of HuNoV RdRp activity at 20 μM", "setting": "HuNoV (GII.4) RdRp [2]", "value": "modest inhibition"}, {"measurement": "Inhibition of RdRp primed elongation activity (gel-shift)", "setting": "HuNoV (GII.4) RdRp [1]", "value": "did not show significant inhibition"}]}, {"compound": "O=C(N/N=C/c1ccc(OCc2ccccc2)cc1O)c1ccccc1O", "note": "[Compound 3b]", "values": [{"measurement": "Inhibition of HuNoV RdRp activity at 20 μM", "setting": "HuNoV (GII.4) RdRp [2]", "value": "modest inhibition"}, {"measurement": "Inhibition of RdRp primed elongation activity (gel-shift)", "setting": "HuNoV (GII.4) RdRp [1]", "value": "did not show significant inhibition"}]}, {"compound": "Cc1cc(C(=O)O)ccc1-c1ccc(/C=C2\\SC(=O)N(CC(=O)N3CCOCC3)C2=O)o1", "note": "[Compound 4]", "values": [{"measurement": "MNV CC50", "setting": "RAW 264.7 cells", "value": "did not display any cytotoxicity"}, {"measurement": "IC50", "setting": "HuNoV (GII.4) RdRp [4]", "value": 15, "unit": "µM"}]}, {"compound": "Cc1cc(O)ccc1-c1ccc(/C=C2\\SC(=O)N(CC(=O)N3CCOCC3)C2=O)o1", "note": "[Compound 4a]", "values": [{"measurement": "Inhibition of HuNoV RdRp activity at 20 μM", "setting": "HuNoV (GII.4) RdRp [2]", "value": "modest inhibition"}]}, {"compound": "O=C(CN1C(=O)S/C(=C\\c2ccc(-c3ccc(O)cc3)o2)C1=O)N1CCOCC1", "note": "[Compound 4b]", "values": [{"measurement": "MNV CC50", "setting": "RAW 264.7 cells", "value": "cytotoxic effect in the micromolar range"}, {"measurement": "Inhibition of RdRp primed elongation activity (gel-shift)", "setting": "HuNoV (GII.4) RdRp [1]", "value": "significant but partial inhibition"}]}, {"compound": "O=C(CN1C(=O)S/C(=C\\c2ccc(-c3ccc(OP(=O)(O)O)cc3)o2)C1=O)N1CCOCC1", "note": "[Compound 4c]", "values": [{"measurement": "Inhibition of RdRp primed elongation activity (gel-shift)", "setting": "HuNoV (GII.4) RdRp [1]", "value": "partial inhibition"}]}, {"compound": "O=C1NN(c2ccccc2)C(=O)/C1=C/c1ccc(-c2ccc(S(=O)(=O)Nc3ccccc3)cc2)o1", "note": "[Compound 5]", "values": [{"measurement": "EC50", "setting": "[5]", "value": "> 100", "unit": "µM"}, {"measurement": "IC50", "setting": "HuNoV (GII.4) RdRp [4]", "value": 5.6, "unit": "µM"}, {"measurement": "Inhibition of RdRp primed elongation activity (gel-shift)", "setting": "HuNoV (GII.4) RdRp [1]", "value": "completely abolish"}]}, {"compound": "O=C1NN(c2ccc(O)cc2)C(=O)/C1=C/c1ccc(-c2ccc(S(=O)(=O)Nc3ccccc3)cc2)o1", "note": "[Compound 5a]", "values": [{"measurement": "MNV CC50", "setting": "RAW 264.7 cells", "value": "CC50 value in the low micromolar range"}, {"measurement": "Inhibition of RdRp primed elongation activity (gel-shift)", "setting": "HuNoV (GII.4) RdRp [1]", "value": "nearly complete inhibition"}]}, {"compound": "NC(=O)c1nc(F)c[nH]c1=O", "note": "[Compound T-705, Favipiravir]", "values": [{"measurement": "EC50", "setting": "NoV", "value": 21, "unit": "µM"}, {"measurement": "CC50", "setting": "[3]", "value": "> 100", "unit": "µM"}]}, {"compound": "Cc1nc(-c2ccccc2)sc1C(=O)Nc1sc2c(c1C#N)CCC2", "note": "[NIC02]", "values": [{"measurement": "IC50", "setting": "HuNoVpol", "value": 5, "unit": "µM"}, {"measurement": "EC50", "setting": "MNV", "value": 4.8, "unit": "µM"}]}, {"compound": "Cc1nc(/N=N/c2cc(S(=O)(=O)O)c3cc([N+](=O)[O-])cc(S(=O)(=O)O)c3c2)c(COP(=O)(O)O)c(C=O)c1O", "note": "[PPNDS, reference compound]", "values": [{"measurement": "IC50", "setting": "HuNoVpol", "value": 0.45, "unit": "µM"}, {"measurement": "IC50", "setting": "HuNoV (GII.4) RdRp [4]", "value": "1.5 ± 0.25", "unit": "µM"}, {"measurement": "Inhibition of RdRp primed elongation activity (gel-shift)", "setting": "HuNoV (GII.4) RdRp [1]", "value": "complete inhibition"}]}, {"compound": "NC(=O)c1ncn([C@@H]2O[C@H](CO)[C@@H](O)[C@H]2O)n1", "note": "[Ribavirin]", "values": [{"measurement": "EC50", "setting": "NoV", "value": 43, "unit": "µM"}, {"measurement": "CC50", "setting": "[3]", "value": "> 100", "unit": "µM"}]}, {"compound": "Cc1ccc(C(=O)Nc2ccc(S(=O)(=O)O)c3cc(S(=O)(=O)O)cc(S(=O)(=O)O)c23)cc1NC(=O)c1cccc(NC(=O)Nc2cccc(C(=O)Nc3cc(C(=O)Nc4ccc(S(=O)(=O)O)c5cc(S(=O)(=O)O)cc(S(=O)(=O)O)c45)ccc3C)c2)c1", "note": "[Suramin]", "values": [{"measurement": "IC50", "setting": "HuNoVpol", "value": 0.025, "unit": "µM"}, {"measurement": "IC50", "setting": "MNVpol", "value": 0.07, "unit": "µM"}]}]}
